From PMC4764201, “High Throughput Screen for Escherichia coli Twin Arginine Translocation (Tat) Inhibitors” (PLoS ONE, 2016)
“Also recorded” adds a separate entry of the source.

Experiments:
[1] = target: E. coli Tat machinery (IMVs containing overproduced TatABC) (Escherichia coli, UniProt P69423+P69425+P69428); test: In vitro Tat transport assay of pre-SufI into IMVs, NADH as energy source; assay type: biochemical; details: for outcome of NADH-dependent in vitro Tat transport screen (survival = visible inhibition of Tat transport): hit compound 20 μM, NADH 4 mM, 37°C 30 min; for IC50: efficiency of NADH-dependent in vitro Tat transport of pre-SufI, IMVs A280 = 5; for effect on in vitro E. coli Tat transport: 90 nM pre-SufI, NADH, with and without 2.5 mM DTT
Chain of E. coli Tat machinery (IMVs containing overproduced TatABC) (P69423 2-258): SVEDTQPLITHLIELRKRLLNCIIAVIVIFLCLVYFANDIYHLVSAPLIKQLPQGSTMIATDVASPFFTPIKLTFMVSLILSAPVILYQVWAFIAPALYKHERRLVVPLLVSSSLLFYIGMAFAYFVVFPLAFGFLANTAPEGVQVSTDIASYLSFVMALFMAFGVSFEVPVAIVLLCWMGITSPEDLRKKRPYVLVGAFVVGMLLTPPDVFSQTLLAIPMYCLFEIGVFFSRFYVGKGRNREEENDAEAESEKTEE
Chain of E. coli Tat machinery (IMVs containing overproduced TatABC) (P69425 whole entry): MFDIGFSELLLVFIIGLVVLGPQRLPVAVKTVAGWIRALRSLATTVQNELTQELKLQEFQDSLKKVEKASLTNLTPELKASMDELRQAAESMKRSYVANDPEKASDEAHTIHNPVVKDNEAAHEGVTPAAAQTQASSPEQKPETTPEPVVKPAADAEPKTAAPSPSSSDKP
Chain of E. coli Tat machinery (IMVs containing overproduced TatABC) (P69428 whole entry): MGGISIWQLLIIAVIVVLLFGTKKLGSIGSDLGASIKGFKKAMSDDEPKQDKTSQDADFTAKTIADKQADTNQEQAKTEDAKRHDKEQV
Description: To directly test for inhibition of Tat transport, a gel-based in vitro Tat transport assay was performed using pre-SufI, an authentic Tat precursor protein [7]. In short, this assay consists of incubating a Tat substrate and a Δψ-generating energy source with inverted membrane vesicles (IMVs) containing overproduced TatABC, digesting remaining external protein with a protease, and then analyzing via SDS-PAGE. This assay was run twice using NADH and ATP (if warranted) as energy sources to generate the necessary Δψ. NADH generates a Δψ using respiratory proteins (i.e., the NADH dehydrogenase and cytochrome bo3 ubiquinol oxidase complexes) and ATP generates a Δψ by reversal of ATP synthase. A true Tat inhibitor would survive both assays. In contrast, a respiration inhibitor is expected to reduce Tat transport when only one of the two energy sources is used (except for an ionophore).
Fig 8 Effect of Hits from the Local HTS on In Vitro Tat Transport. (A) Tat transport assays of pre-SufI using NADH to generate a Δψ. Inverted membrane vesicles (IMVs; A280 = 5.0), the fluorescent substrate pre-SufI-IAC^Atto565 (90 nM), and NADH (4 mM) were incubated at 37°C for 30 min with DMSO (control) or with hit compound (20 μM). Samples were treated with the protease proteinase K, run on SDS-PAGE, and analyzed by in-gel fluorescence imaging. Assays were run in duplicate. Band intensity corresponds to the amount of protein transported into the IMV lumen. The following 7 compounds survived this screen: 1^JS, 51^JS, 55^JS, 111^JS, 181^JS, 202^JS, and 140^JS (boxed in red). (B) Tat transport assays of pre-SufI using ATP to generate a Δψ. All 7 compounds surviving the screen in (A) were tested using a Tat transport assay performed identically to those in (A) except that ATP (1 mM) was used in place of NADH. Compound 55^JS was eliminated by this assay—the other 6 compounds survived (boxed in red). (C) Chemical structure of compound 55^JS, N-(4,7-Dioxo-4,7-dihydro-2,1,3-benzoxadiazol-5-yl)acetamide.
Isolation of inverted membrane vesicles (IMVs), Western blot analyses and purification of pre-SufI-IAC were performed as described previously. Western blots were performed using rabbit anti-mCherry antibodies (1:10,000 dilution) in the presence of 0.1% Triton X-100 and 0.1% Tween 20. The pre-SufI-IAC protein was labeled with Atto565 maleimide, and the resultant fluorescent protein, pre-SufI-IAC^Atto565, was used as a substrate for the in vitro Tat transport assays (A280 = 5.0), as described previously. The presence of a Δψ was determined by measuring oxonol VI fluorescence in presence of Tat^+ IMVs (A280 = 0.5), as described previously, except that the translocation buffer lacked BSA. Steady-state fluorescence spectra and fluorescence intensities of whole cells producing mCherry proteins were determined with an SLM-8100 spectrofluorometer.
Supplementary file pone.0149659.s003.tiff: S3 Fig IC50's for Hit Compound 181^JS. (A) The total cellular mCherry fluorescence (live cell assay; n = 1), (B) the in vitro NADH-dependent Tat transport efficiency of pre-SufI (n = 1), and (C) the maximum transmembrane electrical potential gradient (n = 1) were measured for a range of concentrations of compound 181^JS (S2E Fig). (D) SDS-PAGE gel showing in-gel fluorescence data used in (B). For (A), cells expressing spTorA-mCherry-SsrA were grown under Tat^++ conditions in a 384-well plate in the presence of 0, 0.08, 0.15, 0.3, 0.63, 1.25, 2.5, 5, 10, 20, or 40 μM compound 181^JS, as described for the HTS assay (see Methods). For (B) and (C), IMVs were incubated with the same concentrations of compound 181^JS prior to initiation of Tat transport and Δψ generation by the addition of NADH, as described previously. The red curves are best-fits using y = d + (100-d)/(1+(x/IC50)^b), where b is a slope factor and d is the high concentration asymptote. (TIFF) Click here for additional data file.

[2] = tested on: Pseudomonas aeruginosa Tat machinery; set-up: method as in PMID 23006747; details: cited from earlier work

Which “outcome of NADH-dependent in vitro Tat transport screen (survival = visible inhibition of Tat transport)” value [1] does the source give for `O=[N+]([O-])c1ccc(O)c(-c2cccs2)c1` [Compound 202, 4-nitro-2-thiophen-2-ylphenol] here?
Its value is “survived”.

For `N#CC(C#N)=NNc1ccccc1Br` [Compound 1, [(2-bromophenyl)hydrazono]malononitrile], which “outcome of NADH-dependent in vitro Tat transport screen (survival = visible inhibition of Tat transport)” value [1] is on record?
The value was “survived”.

For `Fc1nc(F)c(F)c(NNC(=S)Nc2cccc(C(F)(F)F)c2)c1F` [Compound 111, 1-[(2,3,5,6-tetrafluoropyridin-4-yl)amino]-3-[(3-trifluoromethyl)phenyl]thiourea], which IC50 [1] is on record?
The IC50 was 0.7 µM.

And the “outcome of NADH-dependent in vitro Tat transport screen (survival = visible inhibition of Tat transport)” value [1]?
The value was “survived”.

For `O=[N+]([O-])c1cc([N+](=O)[O-])c2ccccc2c1Cl` [Compound 51, 1-chloro-2,4-dinitronaphthalene], which “outcome of NADH-dependent in vitro Tat transport screen (survival = visible inhibition of Tat transport)” value [1] is on record?
Its value is “survived”.

With `Cc1ccc(S(=O)(=O)/C=C/C#N)cc1` [Bay 11–7082] as the molecule, how does the “effect on in vitro E. coli Tat transport” value [1] read?
Its value is “neither compound affected; also recorded: do not inhibit”.

What about the “activity on the Pseudomonas aeruginosa Tat machinery” value [2] of the same molecule?
Its value is “identified as inhibitors”.

With `FC(F)(F)c1cccc(-c2cccc3cnccc23)c1` [Compound 140, 5-[3-(trifluoromethyl)phenyl]isoquinoline] as the molecule, how does the “outcome of NADH-dependent in vitro Tat transport screen (survival = visible inhibition of Tat transport)” value [1] read?
The value was “survived”.

Which IC50 [1] does the source give for `N#CC1c2ccccc2-n2nncc2CN1Cc1cc(Cl)cc(Cl)c1` (stereo not drawn) [21^NIH, 5-[(3,5-dichlorophenyl)methyl]-4,6-dihydrotriazolo[1,5-a][1, 4]benzodiazepine-6-carbonitrile] here?
Its IC50 is 50 µM.

Which “outcome of NADH-dependent in vitro Tat transport screen (survival = visible inhibition of Tat transport)” value [1] does the source give for `O=C(Nc1cccc(C(F)(F)F)c1)Nc1ncc([N+](=O)[O-])s1` [Compound 181^JS, 1-(5-nitro-1,3-thiazol-2-yl)-3-[3-(trifluoromethyl)phenyl]urea] here?
The value was “survived”.

With `O=C1C=CC(=O)N1c1ccccc1` [N-phenylmaleimide] as the molecule, how does the “effect on in vitro E. coli Tat transport” value [1] read?
The value was “neither compound affected; also recorded: do not inhibit”.

What about the “activity on the Pseudomonas aeruginosa Tat machinery” value [2] of the same molecule?
The value was “identified as inhibitors”.
